# Target: SIK2 (Homo sapiens, UniProt Q9H0K1)
# Test: SIK2 Enzymatic Assay High Version 2 (High ATP)
# Type: biochemical
# Conditions: not given
# Procedure, shortened: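 At room temperature, enzyme (6 nM, 2× final) was preincubated with compound for 30 min, then 6 mM ATP and 400 μM HDAC5tide (both 2× final) were added for 2 h. ADP formed was measured by ADP-Glo Max (2 h reagent, 1 h detection) using luminescence.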
# Sequence of SIK2 (Q9H0K1 whole entry, species assumed): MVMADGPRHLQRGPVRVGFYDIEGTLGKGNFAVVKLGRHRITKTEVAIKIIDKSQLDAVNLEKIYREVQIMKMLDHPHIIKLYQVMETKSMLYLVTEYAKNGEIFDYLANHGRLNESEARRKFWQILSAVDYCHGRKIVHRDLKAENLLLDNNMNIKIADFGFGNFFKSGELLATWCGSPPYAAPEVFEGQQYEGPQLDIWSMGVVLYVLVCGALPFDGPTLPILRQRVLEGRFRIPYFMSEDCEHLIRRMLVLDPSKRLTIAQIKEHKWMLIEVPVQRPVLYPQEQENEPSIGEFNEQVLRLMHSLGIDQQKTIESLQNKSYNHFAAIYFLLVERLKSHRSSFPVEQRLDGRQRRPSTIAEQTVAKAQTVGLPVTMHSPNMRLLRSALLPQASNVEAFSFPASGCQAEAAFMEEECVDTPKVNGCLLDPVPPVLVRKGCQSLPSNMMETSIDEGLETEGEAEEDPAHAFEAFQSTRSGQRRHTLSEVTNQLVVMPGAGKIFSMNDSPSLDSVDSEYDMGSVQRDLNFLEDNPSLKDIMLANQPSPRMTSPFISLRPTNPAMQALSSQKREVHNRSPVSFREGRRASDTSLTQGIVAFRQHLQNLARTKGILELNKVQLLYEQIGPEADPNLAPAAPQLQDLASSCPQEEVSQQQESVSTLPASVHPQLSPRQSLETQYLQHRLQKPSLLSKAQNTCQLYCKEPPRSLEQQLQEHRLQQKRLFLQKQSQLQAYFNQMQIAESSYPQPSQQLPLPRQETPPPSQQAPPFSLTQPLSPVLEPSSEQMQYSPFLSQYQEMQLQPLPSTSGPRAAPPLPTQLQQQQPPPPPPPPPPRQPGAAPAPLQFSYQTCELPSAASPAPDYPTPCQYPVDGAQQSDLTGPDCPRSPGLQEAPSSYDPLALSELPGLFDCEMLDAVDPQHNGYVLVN
row,SMILES,IC50 [µM]
1,"Cc1cc(-c2cn3cc(Nc4cc(C)nc(C)n4)nc3cn2)c(O[C@H]2C[C@H]3COC[C@@H](C2)N3)cn1 (single isomer, unassigned) [Example 348]",< 0.000847
2,"Cc1cc(-c2ccn3nc(Nc4cc(C(F)(F)F)ccn4)cc3c2)c(O[C@H]2C[C@H]3COC[C@@H](C2)N3)cn1 [Example 378, 5-[2-methyl-5-[[(1S,5R,7s)-3-oxa-9-azabicyclo[3.3.1]nonan-7-yl]oxy]-4-pyridyl]-N-[4-(trifluoromethyl)-2-pyridyl]pyrazolo[1,5-a]pyridin-2-amine]",< 0.000847
3,"Cc1cc(-c2ccn3nc(Nc4cnccn4)cc3c2)c(O[C@H]2C[C@H]3COC[C@@H](C2)N3)cn1 [Example 392, 5-[2-methyl-5-[[(1S,5R,7s)-3-oxa-9-azabicyclo[3.3.1]nonan-7-yl]oxy]-4-pyridyl]-N-pyrazin-2-yl-pyrazolo[1,5-a]pyridin-2-amine]",0.00107
4,"CCN1[C@@H]2COC[C@H]1C[C@@H](Oc1cnc(C)cc1-c1ccn3nc(NC(=O)C4CC4)cc3c1)C2 [Example 161, 7-endo-N-(5-(5-(((1R,5S,7s)-9-ethyl-3-oxa-9-azabicyclo[3.3.1]nonan-7-yl)oxy)-2-methylpyridin-4-yl)pyrazolo[1,5-a]pyridin-2-yl)cyclopropanecarboxamide]",< 0.000847
5,"CC(=O)N1[C@@H]2COC[C@H]1C[C@@H](Oc1cnc(C)cc1-c1ccn3nc(Nc4cc(C)nc(C)n4)cc3c1)C2 [Example 627, 1-((1R,5S,7s)-7-((4-(2-((2,6-dimethylpyrimidin-4-yl)amino)pyrazolo[1,5-a]pyridin-5-yl)-6-methylpyridin-3-yl)oxy)-3-oxa-9-azabicyclo[3.3.1]nonan-9-yl)ethan-1-one]",0.0651
6,"Cc1cc(-c2ccn3nc(NC(=O)C4CC4)cc3c2)c(OC[C@@H]2CCCN2C)cn1 [Example 572, N-[5-[2-methyl-5-[[(2S)-1-methylpyrrolidin-2-yl]methoxy]-4-pyridyl]pyrazolo[1,5-a]pyridin-2-yl]cyclopropanecarboxamide]",0.0787

# Same assay, conditions: enzyme 6 nM, 6 mM ATP and 400 μM HDAC5tide (each 2× final concentration); 30 minutes pre-incubation, 2 hours; ADP-Glo Max luminescence; read-out: SIK2 high ATP IC50 (μM) (Test Example 2)
row,IC50 [µM],SMILES
1,0.0275,"Cc1cc(-c2ccn3nc(Nc4cc(C)nc(C)n4)cc3c2)c(OC[C@H](C)C(C)(C)O)cn1 [Example 554, (3S)-4-[[4-[2-[(2,6-dimethylpyrimidin-4-yl)amino]pyrazolo[1,5-a]pyridin-5-yl]-6-methyl-3-pyridyl]oxy]-2,3-dimethyl-butan-2-ol]"
2,0.0135,"Cc1cc(-c2ccn3nc(Nc4cc(C(=O)NC5CC5)cc(C)n4)cc3c2)c(OCC(C)(C)O)cn1 [Example 636, N-cyclopropyl-2-[[5-[5-(2-hydroxy-2-methyl-propoxy)-2-methyl-4-pyridyl]pyrazolo[1,5-a]pyridin-2-yl]amino]-6-methyl-pyridine-4-carboxamide]"
3,0.0196,"Cc1cc(-c2ccn3nc(Nc4ccn(C)n4)cc3c2)c(OCC2(N)CC(F)(F)C2)cn1 [Example 162, 5-[5-[(1-amino-3,3-difluoro-cyclobutyl)methoxy]-2-methyl-4-pyridyl]-N-(1-methylpyrazol-3-yl)pyrazolo[1,5-a]pyridin-2-amine]"
4,0.00302,"Cc1cnc(Nc2cc3cc(-c4cc(OC(F)F)ncc4OCC(C)(C)C#N)ccn3n2)cn1 [Example 709, 3-[[6-(difluoromethoxy)-4-[2-[(5-methylpyrazin-2-yl)amino]pyrazolo[1,5-a]pyridin-5-yl]-3-pyridyl]oxy]-2,2-dimethyl-propanenitrile]"
5,0.0559,"Cc1cc(-c2ccn3nc(Nc4cccnn4)cc3c2)c(OC[C@@H]2CNCC(C)(C)O2)cn1 [Example 518, 5-[5-[[(2S)-6,6-dimethylmorpholin-2-yl]methoxy]-2-methyl-4-pyridyl]-N-pyridazin-3-yl-pyrazolo[1,5-a]pyridin-2-amine]"
6,0.000971,"Cc1cc(Nc2cc3cc(-c4cc(Cl)ncc4OC[C@]45CN[C@H](CO4)C5)ccn3n2)nc(C)n1 [Example 303, 5-[2-chloro-5-[[(1S,4S)-5-oxa-2-azabicyclo[2.2.1]heptan-4-yl]methoxy]-4-pyridyl]-N-(2,6-dimethylpyrimidin-4-yl)pyrazolo[1,5-a]pyridin-2-amine]"
7,0.0868,"Cc1cc(-c2ccn3nc(Nc4cc(C(F)(F)F)c(C(=O)NC(C)C)cn4)cc3c2)c(OCC(C)(C)O)cn1 [Example 650, 6-[[5-[5-(2-hydroxy-2-methyl-propoxy)-2-methyl-4-pyridyl]pyrazolo[1,5-a]pyridin-2-yl]amino]-N-isopropyl-4-(trifluoromethyl)pyridine-3-carboxamide]"
8,0.00194,"Cc1cc(-c2ccn3nc(Nc4cnccn4)cc3c2)c(OC[C@@H]2CNCCO2)cn1 [Example 431, 5-[2-methyl-5-[[(2S)-morpholin-2-yl]methoxy]-4-pyridyl]-N-pyrazin-2-yl-pyrazolo[1,5-a]pyridin-2-amine]"

# Second part, the compound before the results:
row,SMILES,IC50 [µM]
1,"Cc1cc(Nc2cc3cc(-c4cc(OC(F)F)ncc4OCC(C)(C)C#N)ccn3n2)nc(C(C)(C)C)n1 [Example 703, 3-[[4-[2-[(2-tert-butyl-6-methyl-pyrimidin-4-yl)amino]pyrazolo[1,5-a]pyridin-5-yl]-6-(difluoromethoxy)-3-pyridyl]oxy]-2,2-dimethyl-propanenitrile]",0.0699
2,"Cc1cc(-c2cn3cc(NC(=O)C4CC4)nc3cn2)c(OC2CN(C)C2)cn1 [Example 654, N-[6-[2-methyl-5-(1-methylazetidin-3-yl)oxy-4-pyridyl]imidazo[1,2-a]pyrazin-2-yl]cyclopropanecarboxamide]",0.0743
3,"Cc1cc(Nc2cc3cc(-c4cc(OC(F)F)ncc4OCC(C)(C)C#N)ccn3n2)nn(C)c1=O [Example 684, 3-[[6-(difluoromethoxy)-4-[2-[(1,5-dimethyl-6-oxo-pyridazin-3-yl)amino]pyrazolo[1,5-a]pyridin-5-yl]-3-pyridyl]oxy]-2,2-dimethyl-propanenitrile]",0.0102
4,"Cc1cc(Nc2cc3cc(-c4cc(O[C@H](C)C#N)ncc4O[C@H]4CC[C@H](O)CC4)ccn3n2)nc(C)n1 (relative stereo) [Example 721, (*R)-2-[[4-[2-[(2,6-dimethylpyrimidin-4-yl)amino]pyrazolo[1,5-a]pyridin-5-yl]-5-(4-hydroxycyclohexoxy)-2-pyridyl]oxy]propanenitrile]",0.0261
5,"Cc1cc(-c2cn3cc(Nc4cncc(C)n4)nc3cn2)c(O[C@H]2CC[C@H](O)CC2)cn1 [Example 657, 4-[[6-methyl-4-[2-[(6-methylpyrazin-2-yl)amino]imidazo[1,2-a]pyrazin-6-yl]-3-pyridyl]oxy]cyclohexanol]",0.984
6,"COc1cc(Nc2cc3cc(-c4cc(C)ncc4OCC(C)(C)O)ccn3n2)cc(OC(F)F)c1C(=O)NC1CC1 [Example 648, N-cyclopropyl-2-(difluoromethoxy)-4-[[5-[5-(2-hydroxy-2-methyl-propoxy)-2-methyl-4-pyridyl]pyrazolo[1,5-a]pyridin-2-yl]amino]-6-methoxy-benzamide]",0.0887
7,"Cc1cc(Nc2cc3cc(-c4cc(NCC(F)F)ncc4OCC(C)(C)C#N)ccn3n2)nc(C)n1 [Example 667, 3-[[6-(2,2-difluoroethylamino)-4-[2-[(2,6-dimethylpyrimidin-4-yl)amino]pyrazolo[1,5-a]pyridin-5-yl]-3-pyridyl]oxy]-2,2-dimethyl-propanenitrile]",0.0127

# Source: patent US20240158392A1 (Janssen Biotech, Inc., priority 2021, published 2024)
